Test results reported in US20260256909A1, “COMBINATION OF A BTN3A ACTIVATING ANTIBODY, A BCL2 INHIBITOR AND HYPOMETHYLATING AGENT FOR USE IN TREATING CANCER” (Imcheck Therapeutics, priority 2022, published 2026).

Columns and labels:
Format in all cases: cell-based, human
[1] = tested on: Vγ9Vδ2 T cells; experiment: Phenotypic activation of Vγ9Vδ2 T cells in HD-PBMC (CD69/CD25 expression, flow cytometry); conditions: for activation of Vγ9Vδ2 T cells by ICT01 (CD25 expression): HD-PBMC treated one day with Venetoclax (0-0.1 μM), 5-Azacytidine (0-0.4 μM) prior to ICT01 for two days; for effect on the ICT01-induced upregulation of CD25 by Vγ9Vδ2 T cells: day 4, together with ICT01 1 μg/mL, Venetoclax 0-0.1 μM, 5-Azacytidine 0-0.4 μM
Description: Peripheral Blood Mononuclear Cells (PBMC) were isolated by Ficoll density gradient centrifugation of peripheral blood (EDTA-buffy coats) from healthy donors (HD, n=4-6), cultured in PBMC medium (RPMI 1640 Medium supplemented with 10% Fetal Bovine Serum (FBS), 1% Penicillin/Streptomycin and 1 mM Sodium Pyruvate) and treated with ICT01 or its isotype control (hIgG1S) used at 1 μg/mL in the presence or absence of increasing concentrations of Venetoclax (0-0.1 μM), 5-Azacytidine (0-0.4 μM) or the combination, or ABT-737 (0-1.875 μM), Navitoclax (0-1.875 μM) or MIK665 (0-1.875 μM). Cells were harvested on day 2, centrifuged at 1800 rpm for 5 minutes and then incubated 10 minutes at room temperature (RT) with 25 μl of FcR blocking reagent (Miltenyi Biotec) before adding 25 μL of the following antibody mix prepared in PBS+2% FBS+2 mM EDTA (FACS buffer): anti-CD4-BUV395, CD56-BV421, Vd2-PE, CD3-PE-CF594 and CD8-A700 antibodies for the identification of immune subsets, anti-CD25-BV650 and CD69-APC antibodies were added to monitor activation status of Vγ9Vδ2 T cells, and a viability marker (LIVE/DEAD™ Fixable Dead Cell Stain) was added to distinguish live from dead cells. Cells were incubated 20 minutes at room temperature (RT) and washed 2 times with FACS buffer. A Caspase3/7 Green detection reagent (ThermoFisher) was added to determine apoptosis and cells were incubated for 30 minutes at RT before flow cytometry analysis.
(§1) ICT01-induced phenotypic activation of Vγ9Vδ2 T cells is indicated by the upregulation of CD25. Therefore, human PBMC from healthy donors (HD, n=6) were cultured with ICT01 or its isotype control (hIgG1S) used at 1 μg/mL in the presence or absence of increasing concentrations of Venetoclax (0-0.1 μM), 5-Azacytidine (0-0.4 μM) or the combination in PBMC medium (RPMI 1640 Medium supplemented with 10% FBS, 1% Penicillin/Streptomycin and 1 mM Sodium Pyruvate). Cells were harvested on day 4, centrifuged at 1800 rpm for 5 minutes and then incubated 10 minutes at room temperature (RT) with 25 μl of FcR blocking reagent (Miltenyi Biotec) before adding 25 μL of the following antibody mix prepared in PBS+2% FBS+2 mM EDTA (FACS buffer): anti-CD4-BV650, CD56-FITC, Vd2-PE, CD3-PE-CF594 and CD8-A700 antibodies for the identification of immune subsets, an anti-CD25-BV650 antibody was added to monitor activation status, and a viability marker (LIVE/DEAD™ Fixable Dead Cell Stain) was added to distinguish live from dead cells. Cells were incubated 20 minutes at 4° C. and washed 2 times in FACS buffer before flow cytometry analysis.
In a similar experiment, freshly isolated healthy donor-derived PBMC were treated with increasing concentrations of Venetoclax (0-0.1 μM), 5-Azacytidine (0-0.4 μM) or the combination for one day prior to stimulation with ICT01 or its isotype control hIgG1S for two days. Again, activation of Vγ9Vδ2T cells by ICT01 was unaffected by Venetoclax and 5-Azacytidine treatment, as indicated by the similar induction of CD25 expression in all conditions tested (Figure b).

[2] = tested on: Vγ9Vδ2 T cells; experiment: Proliferation of Vγ9Vδ2 T cells in HD-PBMC (CellTrace Violet); conditions: day 4, ICT01 1 μg/mL; for ICT01 and IL2-induced proliferation of Vγ9Vδ2 T cells: 50 IU/mL IL2; for increase of ICT01-induced proliferation of Vγ9Vδ2 T cells: absence of IL2
Description: as §1, with “Finally, freshly isolated” for “ICT01-induced phenotypic activation of Vγ9Vδ2 T cells is indicated by the upregulation of CD25. Therefore,”, “labeled with CellTrace Violet stain (CTV, Invitrogen) to determine cell proliferation upon treatment” for “cultured”, “Pyruvate). Half of the cells were additionally treated with 50 IU/mL IL2.” for “Pyruvate).”, “RT” for “room temperature (RT)”, “Vδ2-PE,” for “Vd2-PE,”, “subsets,” for “subsets, an anti-CD25-BV650 antibody was added to monitor activation status,”

[3] = tested on: Vγ9Vδ2 T cells; experiment: ICT01-induced IFNγ production by Vγ9Vδ2 T cells in HD-PBMC (intracellular staining); conditions: for effect on ICT01-induced IFNγ production by Vγ9Vδ2 T cells: single agent, independent of IL2
Description: To evaluate the effect of Venetoclax and 5-Azacytidine on cytokine production, freshly isolated human PBMC from healthy donors (HD, n=6) were cultured in PBMC medium (RPMI 1640 Medium supplemented with 10% Fetal Bovine Serum (FBS), 1% Penicillin/Streptomycin and 1 mM Sodium Pyruvate) and treated with ICT01 or its isotype control (hIgG1S) used at 1 μg/mL in the presence or absence of increasing concentrations of Venetoclax (0-0.1 μM), 5-Azacytidine (0-0.4 μM) or the combination. Half of the cells were additionally treated with 50 IU/mL IL2. Golgi Stop was added after 6-8 hours of co-culture and cells were harvested 16 h later, centrifuged at 1800 rpm for 5 minutes and then incubated 10 minutes at room temperature (RT) with 25 μl of FcR blocking reagent (Miltenyi Biotec) before adding 25 μL of the following antibody mix prepared in PBS+2% FBS+2 mM EDTA (FACS buffer): anti-CD4-BV650, Vγ9-FITC, CD3-PE-CF594, CD56-PE-Vio770 and CD8-AF700 antibodies for the identification of immune subsets, and a viability marker (LIVE/DEAD™ Fixable Dead Cell Stain) was added to distinguish live from dead cells. After 20 minutes, 100 μL of CytoFix solution (BD Bioscience) was added, and cells were incubated for 20 minutes at 4° C. 100 μL of Perm/Wash (BD Bioscience) were added, cells centrifuged and washed once in 200 μL Perm/Wash. After washing, cells were stained with anti-IFNγ-APC antibody for 30 minutes at 4° C., washed twice with Perm/Wash, and analyzed by flow cytometry.

Nc1ncn([C@@H]2O[C@H](CO)[C@@H](O)[C@H]2O)c(=O)n1 [5-Azacytidine, 4-amino-1-[(2R,3R,4S,5R)3,4-dihydroxy-5-(hydroxymethyl)oxolan-2-yl]-1,3,5-triazin-2-one]
activation of Vγ9Vδ2 T cells by ICT01 (CD25 expression) [1]: unaffected
effect on the ICT01-induced upregulation of CD25 by Vγ9Vδ2 T cells ([1]; HD-PBMC): no effect
ICT01 and IL2-induced proliferation of Vγ9Vδ2 T cells [2]: unaffected
increase of ICT01-induced proliferation of Vγ9Vδ2 T cells [2]: not observed
effect on ICT01-induced IFNγ production by Vγ9Vδ2 T cells [3]: no effect

CC1(C)CCC(CN2CCN(c3ccc(C(=O)NS(=O)(=O)c4ccc(NCC5CCOCC5)c([N+](=O)[O-])c4)c(Oc4cnc5[nH]ccc5c4)c3)CC2)=C(c2ccc(Cl)cc2)C1 [Venetoclax, 4-[4-[[2-(4-chlorophenyl)-4,4-dimethylcyclohexen-1-yl]methyl]piperazin-1-yl]-N-[3-nitro-4-(oxan-4-ylmethylamino)phenyl]sulfonyl-2-(1H-pyrrolo[2,3-b]pyridin-5-yloxy)benzamide]
activation of Vγ9Vδ2 T cells by ICT01 (CD25 expression) [1]: unaffected
effect on the ICT01-induced upregulation of CD25 by Vγ9Vδ2 T cells ([1]; HD-PBMC): no effect
ICT01 and IL2-induced proliferation of Vγ9Vδ2 T cells [2]: unaffected
increase of ICT01-induced proliferation of Vγ9Vδ2 T cells [2]: ~ 10%
effect on ICT01-induced IFNγ production by Vγ9Vδ2 T cells [3]: no effect

ICT01: humanized BTN3A activating antibody of mAb 7.2, heavy chain SEQ ID NO: 4, light chain SEQ ID NO: 6, silent IgG1 L247F/L248E/P350S
activation of Vγ9Vδ2 T cells: expression of CD69 and CD25 ([1]; HD-PBMC, 2 days, ICT01 1 μg/mL, compared to hIgG1S): increased expression of CD69 and CD25
IFNγ production by Vγ9Vδ2 T cells ([3]; HD-PBMC activated with ICT01 (1 μg/mL) in presence of IL2 (50 IU/mL)): 89.1%
IFNγ production by Vγ9Vδ2 T cells ([3]; HD-PBMC activated with ICT01 alone (1 μg/mL), no IL2): 30.4%
